As usually defined, the IC50 is the concentration that inhibits the measured activity by half.

For one assay, the system named is up-regulation of ICAM-1 (CD54) by IFNγ in U937 human monocytic cells. As to the kind of experiment: U937 IFNγ ICAM1 FACS Assay. It counts as cell-based. To be noted: Homo sapiens, U-937, U937 cells stimulated with IFNγ, ICAM-1 expression by FACS; read-out: IC50, Example 44. The essentials: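 Readout was the geometric-mean APC anti-ICAM-1 signal by FACS on live U937 monocytic cells, with % live cells also recorded. Cells were exposed to compounds (8 points, 3-fold dilutions, duplicates) for 30 min at 37 °C before 18–24 h of IFNγ stimulation. EC50 values were computed from the dose curve.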
As for `Cc1ccc(Nc2nc(Nc3cccc(S(N)(=O)=O)c3)ncc2F)cc1OCCN1CCOCC1` [Compound I-203, N2-(3-Aminosulfonylphenyl)-5-fluoro-N4-[4-methyl-3-(2-morpholinoethyloxy)phenyl]-2,4-pyrimidinediamine], the IC50 was found to be 3.13 µM. Consider `Cc1ccc(Nc2nc(Nc3ccc(C)c(S(N)(=O)=O)c3)ncc2F)cc1OCCN1CCOCC1` [Compound I-204, N2-(3-Aminosulfonyl-4-methylphenyl)-5-fluoro-N4-[4-methyl-3-(2-morpholinoethyloxy)phenyl]2,4-pyrimidinediamine], for which the IC50 came to 3.93 µM.

As to `Cc1cc(COc2ccc(Nc3nc(Nc4cccc(S(N)(=O)=O)c4)ncc3F)cc2)no1` [Compound I-230, N2-(3-Aminosulfonylphenyl)-5-fluoro-N4-[4-(5-methylisoxazol-3-yl)methyleneoxyphenyl]-2,4-pyrimidinediamine], the IC50 stood at 0.465 µM. Take `Cc1cc(COc2ccc(Nc3nc(Nc4cccc(S(=O)(=O)NCc5oc(=O)oc5C)c4)ncc3F)cc2)no1` [Compound I-247, N2-{3-[(N-5-Methyl-1,3-dioxolene-2-one-4-yl)methylene]aminosulfonylphenyl}-5-fluoro-N4-[4-(5-methylisoxazol-3-yl)methyleneoxyphenyl]-2,4-pyrimidinediamine]: the half-maximal inhibitory concentration (IC50) came to 1.08 µM. For the molecule `Cc1nnc(COc2ccc(Nc3nc(Nc4ccc(C)c(S(N)(=O)=O)c4)ncc3F)cc2)o1` [Compound I-279, N2-(3-Aminosulfonyl-4-methylphenyl)-5-fluoro-N4-[4-(5-methyl-1,3,4-oxadiazol-2-yl)methoxyphenyl]-2,4-pyrimidinediamine], the IC50 turned out to be 0.918 µM. On the same count and under the same terms, then `Cc1cc2ccc(CNc3nc(Nc4cccc(S(N)(=O)=O)c4)ncc3F)cc2[nH]1` [Compound X-3], with 1.38 µM; and `Cc1ccc(Nc2ncc(F)c(Nc3cccc(OC4CCN(C)CC4)c3)n2)cc1S(N)(=O)=O` [II-2, N2-(3-Aminosulfonyl-4-methylphenyl)-5-fluoro-N4-{3-[(1-methylpiperidin-4-yl)oxy]phenyl}-2,4-pyrimidinediamine], with 4.59 µM.

For the molecule `Cc1ccc(Nc2ncc(F)c(Nc3ccc(OC4CCN(C)CC4)c(C(F)(F)F)c3)n2)cc1S(N)(=O)=O` [II-6, N2-(3-Aminosulfonyl-4-methylphenyl)-5-fluoro-N4-{4-[(1-methylpiperidin-4-yl)oxy]-3-trifluoromethylphenyl}-2,4-pyrimidinediamine], the IC50 is 6.39 µM. The same measure, in the same setting: the same measure for `Cc1ccc(Nc2ncc(F)c(Nc3ccc(OC4CCN(C)CC4)cc3)n2)cc1S(N)(=O)=O` [II-7, N2-(3-Aminosulfonyl-4-methylphenyl)-5-fluoro-N4-{4-[(1-methylpiperidin-4-yl)oxy]phenyl}-2,4-pyrimidinediamine]: 1.63 µM; for `NS(=O)(=O)c1cccc(Nc2ncc(F)c(Nc3ccc(Oc4cccnc4)cc3)n2)c1` [II-11, N2-(3-Aminosulfonylphenyl)-5-fluoro-N4-[4-(3-pyridyloxy)phenyl]-2,4-pyrimidinediamine]: 0.912 µM; for `Cc1ccc(Nc2ncc(F)c(Nc3ccc(Oc4cccnc4)cc3)n2)cc1S(N)(=O)=O` [II-12, N2-(3-Aminosulfonyl-4-methylphenyl)-5-fluoro-N4-[4-(3-pyridyloxy)phenyl]-2,4-pyrimidinediamine]: 1.19 µM. Take `Cc1cnc(Nc2ccc(Cl)c(S(N)(=O)=O)c2)nc1Nc1ccc(CCC#N)cc1` [III-12, N2-(3-Aminosulfonyl-4-chlorophenyl)-N4-[4-(2-cyanoethyl)phenyl]-5-methyl-2,4-pyrimidinediamine]: the IC50 turned out to be 0.321 µM. Same read-out and setting: the same measure for `Cc1ccc(Nc2ncc(F)c(Nc3ccc(CCC#N)c(F)c3)n2)cc1S(N)(=O)=O` [III-17, N2-(3-Aminosulfonyl-4-methylphenyl)-5-fluoro-N4-[4-(2-cyanoethyl)-3-fluorophenyl]-2,4-pyrimidinediamine]: 0.782 µM; for `N#CCCc1ccc(Nc2nc(Nc3cccc(S(N)(=O)=O)c3)ncc2F)cc1F` [III-18, N2-(3-Aminosulfonylphenyl)-N4-[4-(2-cyanoethyl)-3-fluorophenyl]-5-fluoro-2,4-pyrimidinediamine]: 0.544 µM; for `Cc1cc(Nc2nc(Nc3ccc(C)c(S(N)(=O)=O)c3)ncc2F)ccc1CCC#N` [III-19, N2-(3-Aminosulfonyl-4-methylphenyl)-N4-[4-(2-cyanoethyl)-3-methylphenyl]-5-fluoro-2,4-pyrimidinediamine]: 0.0556 µM. On the same count and under the same terms, the same measure for `Cc1cc(Nc2nc(Nc3cccc(S(N)(=O)=O)c3)ncc2F)ccc1CCC#N` [III-20, N2-(3-Aminosulfonylphenyl)-N4-[4-(2-cyanoethyl)-3-methylphenyl]-5-fluoro-2,4-pyrimidinediamine]: 3.33 µM. On to `Cc1ccc(Nc2ncc(F)c(Nc3ccc(CCC#N)c(Cl)c3)n2)cc1S(N)(=O)=O` [III-21, N2-(3-Aminosulfonyl-4-methylphenyl)-N4-[3-chloro-4-(2-cyanoethyl)phenyl]-5-fluoro-2,4-pyrimidinediamine], for which the IC50 is 0.339 µM. The same measure, in the same setting: the same measure for `N#CCCc1ccc(Nc2nc(Nc3cccc(S(N)(=O)=O)c3)ncc2F)cc1Cl` [III-22, N2-(3-Aminosulfonylphenyl)-N4-[3-chloro-4-(2-cyanoethyl)phenyl]-5-fluoro-2,4-pyrimidinediamine]: 0.444 µM. Same read-out and setting: the same measure for `Cc1ccc(Nc2ncc(F)c(Nc3ccc(CCOC(N)=O)cc3)n2)cc1S(N)(=O)=O` [III-53, N4-{4-[2-(Aminocarbonyloxy)ethyl]phenyl}-N2-(3-aminosulfonyl-4-methylphenyl)-5-fluoro-2,4-pyrimidinediamine]: 1.13 µM; for `NC(=O)OCCc1ccc(Nc2nc(Nc3cccc(S(N)(=O)=O)c3)ncc2F)cc1` [III-54, N4-{4-[2-(Aminocarbonyloxy)ethyl]phenyl}-N2-(3-aminosulfonylphenyl)-5-fluoro-2,4-pyrimidinediamine]: 1.59 µM; for `CN(C)C(=O)OCCc1ccc(Nc2nc(Nc3cccc(S(N)(=O)=O)c3)ncc2F)cc1` [III-57, N2-(3-Aminosulfonylphenyl)-N4-{4-[2-(dimethylaminocarbonyloxy)ethyl]phenyl}-5-fluoro-2,4-pyrimidinediamine]: 0.838 µM. Still for that read-out and setting: the same measure for `CNC(=O)OCCc1ccc(Nc2nc(Nc3cccc(S(N)(=O)=O)c3)ncc2F)cc1` [III-60, N2-(3-Aminosulfonylphenyl)-5-fluoro-N4-{4-[2-(methylaminocarbonyloxy)ethyl]phenyl}-2,4-pyrimidinediamine]: 1.01 µM; for `COc1ccc(Nc2ncc(F)c(Nc3ccc(Cc4ccncc4)cc3)n2)cc1S(N)(=O)=O` [III-66, N2-(3-Aminosulfonyl-4-methoxyphenyl)-5-fluoro-N4-[4-(4-pyridinylmethyl)phenyl]-2,4-pyrimidinediamine]: 0.967 µM. With `NS(=O)(=O)c1ccc(Nc2ncc(F)c(Nc3ccc(Cc4ccncc4)cc3)n2)cc1` [III-71, N2-(4-Aminosulfonylphenyl)-5-fluoro-N4-[4-(4-pyridinylmethyl)phenyl]-2,4-pyrimidinediamine], the half-inhibitory concentration (IC50) amounted to 1.7 µM. The same measure, in the same setting: then `Cc1ccc(Nc2ncc(F)c(Nc3ccc(Cc4ccncc4)cc3)n2)cc1S(N)(=O)=O` [III-74, N2-(3-Aminosulfonyl-4-methylphenyl)-5-fluoro-N4-[4-(4-pyridinylmethyl)phenyl]-2,4-pyrimidinediamine], with 0.935 µM; and `NS(=O)(=O)c1cccc(Nc2ncc(F)c(NCCc3ccc(-c4ccncc4)cc3)n2)c1` [III-76, N2-(3-Aminosulfonylphenyl)-5-fluoro-N4-[4-(4-pyridinyl)phenethyl]-2,4-pyrimidinediamine], with 0.447 µM; and `Cc1ccc(Nc2ncc(F)c(NCCc3ccc(-c4ccncc4)cc3)n2)cc1S(N)(=O)=O` [III-77, N2-(3-Aminosulfonyl-4-methylphenyl)-5-fluoro-N4-[4-(4-pyridinyl)phenethyl]-2,4-pyrimidinediamine], with 0.681 µM. Same read-out and setting: then `NS(=O)(=O)c1cccc(Nc2ncc(F)c(NCCc3ccc(-n4ccnc4)cc3)n2)c1` [III-87, N2-(3-Aminosulfonylphenyl)-5-fluoro-N4-[4-(1-imidazolyl)phenethyl]-2,4-pyrimidinediamine], with 2.95 µM. Consider `Cc1ccc(Nc2ncc(F)c(NCCc3ccc(-n4ccnc4)cc3)n2)cc1S(N)(=O)=O` [III-88, N2-(3-Aminosulfonyl-4-methylphenyl)-5-fluoro-N4-[4-(1-imidazolyl)phenethyl]-2,4-pyrimidinediamine], for which the IC50 is 2.04 µM.

Still in this assay, the particulars now being: U937 cells stimulated with IFNγ; ICAM-1 expression by FACS; read-out: IC50, Example 44.
For the molecule `Cc1ccc(Nc2ncc(F)c(Nc3cnc4c(c3)OC(C)(C)C(=O)N4CC#N)n2)cc1S(N)(=O)=O` [Compound V-14, N2-(3-Aminosulfonyl-4-methylphenyl)-N4-[2,2-dimethyl-3-oxo-4-cyanomethyl-5-pyrid[1,4]oxazin-7-yl]-5-fluoro-2,4-pyrimidinediamine], the IC50 was 6.85 µM.

Consider `NS(=O)(=O)c1cccc(Nc2ncc(F)c(Nc3ccc(Cn4cncn4)cc3)n2)c1` [III-100, N2-(3-Aminosulfonylphenyl)-5-fluoro-N4-{4-[1-(1,2,4-thazolyl)methyl]phenyl}-2,4-pyrimidinediamine], for which the half-inhibitory concentration (IC50) turned out to be 1.91 µM. For `NS(=O)(=O)c1cccc(Nc2ncc(F)c(Nc3ccc(CN4CCOCC4)cc3)n2)c1` [III-103, N2-(3-Aminosulfonylphenyl)-5-fluoro-N4-(4-N-morpholinomethylenephenyl)-2,4-pyrimidinediamine], the IC50 stood at 2.43 µM. With `Cc1ccc(Nc2ncc(F)c(Nc3ccc(CN4CCOCC4)cc3)n2)cc1S(N)(=O)=O` [III-104, N2-(3-Aminosulfonyl-4-methylphenyl)-5-fluoro-N4-(4-N-morpholinomethylenephenyl)-2,4-pyrimidinediamine], the IC50 amounted to 2.16 µM. On to `Cc1noc(CCc2ccc(Nc3nc(Nc4cccc(S(N)(=O)=O)c4)ncc3F)cc2)n1` [III-106, N2-(3-Aminosulfonylphenyl)-5-fluoro-N4-[4-(3-methyl-1,2,4-oxadiazol-5-yl)ethylenephenyl]-2,4-pyrimidinediamine], for which the IC50 was found to be 0.492 µM.

Values taken from patent US11827628B2, “Compositions and methods for inhibition of the JAK pathway” (Rigel Pharmaceuticals, Inc., priority 2005, dated 2023).
